In US11932658B2 (BRISTOL-MYERS SQUIBB COMPANY, priority 2016, dated 2024):

The compounds below were run against T1, PAR4 (Homo sapiens, UniProt Q96RI0) (assay: PAR4 FLIPR assay (antagonism of agonist peptide-induced calcium mobilization)).
T1 construct: expressed in transfected cells; host or cells: HEK293 PAR4 Clone 1.2A (BMS Arctic ID 383940)
T1 sequence (Q96RI0 18-385): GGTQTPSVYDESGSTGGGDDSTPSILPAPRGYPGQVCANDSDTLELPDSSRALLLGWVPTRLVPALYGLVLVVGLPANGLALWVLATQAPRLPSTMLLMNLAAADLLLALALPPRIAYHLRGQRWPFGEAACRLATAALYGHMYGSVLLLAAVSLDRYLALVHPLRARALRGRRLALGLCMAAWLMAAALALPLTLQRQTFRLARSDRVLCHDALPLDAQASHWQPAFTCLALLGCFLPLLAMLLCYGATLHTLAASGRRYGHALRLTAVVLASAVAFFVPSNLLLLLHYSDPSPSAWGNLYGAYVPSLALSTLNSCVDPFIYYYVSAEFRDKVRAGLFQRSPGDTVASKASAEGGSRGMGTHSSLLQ
Assay type: cell-based
Procedure, shortened: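 Antagonism was taken as block of calcium mobilization evoked by the agonist peptide H-Ala-Phe(4-F)-Pro-Gly-Trp-Leu-Val-Lys-Asn-[…]-NH2, added after 30 min room-temperature compound preincubation in dye-loaded PAR4-transfected HEK293 cells (endogenous PAR1). Fluorescence was read on FDSS, with compound addition alone used as the agonist counter-screen; values come from 11-point concentration-response curves.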
`COc1cnc2c(-c3nc4cc(F)c5c(c4s3)C[C@H](COC(=O)Nc3cnc(CCO)nc3)O5)cc(C)cc2n1` [Example 155, (R)-(5-fluoro-2-(2-methoxy-7-methylquinoxalin-5-yl)-7,8-dihydrobenzofuro[5,4-d]thiazo 1-7-yl)methyl (2-(2-hydroxyethyl)pyrimidin-5-yl)carbamate] was tested, and the IC50 was 13 nM. With `COC(=O)[C@@H]1Cc2c(ccc3nc(-c4cc(C)cc5nc(OC)cnc45)sc23)O1` [Example 156, (S)-methyl 2-(2-methoxy-7-methylquinoxalin-5-yl)-7,8-dihydrobenzofuro[5,4-d]thiazole-7-carboxylate] the IC50 was 28 nM. With `COc1cnc2c(-c3nc4cc(F)c5c(c4s3)C[C@H](COC(=O)Nc3cccnc3)O5)cc(C)cc2n1` [Example 157, (R)-(5-fluoro-2-(2-methoxy-7-methylquinoxalin-5-yl)-7,8-dihydrobenzofuro[5,4-d]thiazo 1-7-yl)methyl pyridin-3-ylcarbamate] the IC50 was 0.8 nM. `COc1cnc2c(-c3nc4cc(F)c5c(c4s3)C[C@H](COC(=O)Nc3ccc(C)nc3)O5)cc(C)cc2n1` [Example 159, (R)-(5-fluoro-2-(2-methoxy-7-methylquinoxalin-5-yl)-7,8-dihydrobenzofuro[5,4-d]thiazol-7-yl)methyl (6-methylpyridin-3-yl)carbamate] gave an IC50 of 0.6 nM. `COc1cnc2c(-c3nc4cc(F)c5c(c4s3)C[C@H](COC(=O)Nc3ccnc(C)c3)O5)cc(C)cc2n1` [Example 160, (R)-(5-fluoro-2-(2-methoxy-7-methylquinoxalin-5-yl)-7,8-dihydrobenzofuro[5,4-d]thiazol-7-yl)methyl (2-methylpyridin-4-yl)carbamate] showed an IC50 of 0.6 nM. `COc1cnc2c(-c3nc4cc(F)c5c(c4s3)C[C@H](COC(=O)Nc3cncc(F)c3)O5)cc(C)cc2n1` [Example 161, (R)-(5-fluoro-2-(2-methoxy-7-methylquinoxalin-5-yl)-7,8-dihydrobenzofuro[5,4-d]thiazo 1-7-yl)methyl (5-fluoropyridin-3-yl)carbamate] gave an IC50 of 1.1 nM. With `COc1cnc2c(-c3nc4cc(F)c5c(c4s3)C[C@H](COC(=O)Nc3cccc(C#N)c3)O5)cc(C)cc2n1` [Example 162, (R)-(5-fluoro-2-(2-methoxy-7-methylquinoxalin-5-yl)-7,8-dihydrobenzofuro[5,4-d]thiazol-7-yl)methyl (3-cyanophenyl)carbamate] the IC50 was 0.7 nM. Work on `COc1cc(NC(=O)OC[C@H]2Cc3c(c(F)cc4nc(-c5cc(C)cc6nc(OC)cnc56)sc34)O2)ccn1` [Example 163, (R)-(5-fluoro-2-(2-methoxy-7-methylquinoxalin-5-yl)-7,8-dihydrobenzofuro[5,4-d]thiazo 1-7-yl)methyl (2-methoxypyridin-4-yl)carbamate] yielded an IC50 of 160 nM. For `COc1ccc(NC(=O)OC[C@H]2Cc3c(c(F)cc4nc(-c5cc(C)cc6nc(OC)cnc56)sc34)O2)cn1` [Example 164, (R)-(5-fluoro-2-(2-methoxy-7-methylquinoxalin-5-yl)-7,8-dihydrobenzofuro[5,4-d]thiazo 1-7-yl)methyl (6-methoxypyridin-3-yl)carbamate], the IC50 was 1.6 nM. `COc1cnc2c(-c3nc4cc(F)c5c(c4s3)C[C@H](COC(=O)Nc3ccc(OCCO)nc3)O5)cc(C)cc2n1` [Example 165, (R)-(5-fluoro-2-(2-methoxy-7-methylquinoxalin-5-yl)-7,8-dihydrobenzofuro[5,4-d]thiazo 1-7-yl)methyl (6-(2-hydroxyethoxy)pyridin-3-yl)carbamate] showed an IC50 of 1 nM. `COc1cnc2c(-c3nc4cc(F)c5c(c4s3)C[C@H](COC(=O)Nc3ccc(OCC(F)(F)CO)nc3)O5)cc(C)cc2n1` [Example 166, (R)-(5-fluoro-2-(2-methoxy-7-methylquinoxalin-5-yl)-7,8-dihydrobenzofuro[5,4-d]thiazo 1-7-yl)methyl (6-(2,2-difluoro-3-hydroxypropoxy)pyridin-3-yl)carbamate] was tested, and the IC50 was 1.1 nM. For `COc1cnc2c(-c3nc4cc(F)c5c(c4s3)CC(C)(CO)O5)cc(C)cc2n1` (stereo not drawn) [Example 167, (5-fluoro-2-(2-methoxy-7-methylquinoxalin-5-yl)-7-methyl-7,8-dihydrobenzofuro[5,4-d]thiazol-7-yl)methanol], the IC50 was 3.1 nM. Work on `COc1cncc(NC(=O)OC[C@H]2Cc3c(c(F)cc4nc(-c5cc(C)cc6nc(OC)cnc56)sc34)O2)c1` [Example 168, (R)-(5-fluoro-2-(2-methoxy-7-methylquinoxalin-5-yl)-7,8-dihydrobenzofuro[5,4-d]thiazo 1-7-yl)methyl (5-methoxypyridin-3-yl)carbamate] yielded an IC50 of 5 nM. In the case of `COc1cnc2c(-c3nc4cc(F)c5c(c4s3)C[C@H](COC(=O)Nc3ccc(C(=O)N4CCOCC4)cc3)O5)cc(C)cc2n1` [Example 169, (R)-(5-fluoro-2-(2-methoxy-7-methylquinoxalin-5-yl)-7,8-dihydrobenzofuro[5,4-d]thiazol-7-yl)methyl (4-(morpholine-4-carbonyl)phenyl)carbamate], the IC50 is reported as 6.6 nM. In the case of `COc1cnc2c(-c3nc4cc(F)c5c(c4s3)C[C@H](COC(=O)Nc3ccc(F)nc3)O5)cc(C)cc2n1` [Example 170, (R)-(5-fluoro-2-(2-methoxy-7-methylquinoxalin-5-yl)-7,8-dihydrobenzofuro[5,4-d]thiazo 1-7-yl)methyl (6-fluoropyridin-3-yl)carbamate], the IC50 is reported as 5.7 nM. For `COc1cnc2c(-c3nc4ccc5c(c4s3)CC(C)(CO)O5)cc(C)cc2n1` (stereo not drawn) [Example 171, (2-(2-methoxy-7-methylquinoxalin-5-yl)-7-methyl-7,8-dihydrobenzofuro[5,4-d]thiazol-7-yl)methanol], the IC50 was 45 nM. Work on `COc1cnc2c(-c3nc4cc(F)c5c(c4s3)C[C@@](C)(CO)O5)cc(C)cc2n1` [Example 172, (S)-(5-fluoro-2-(2-methoxy-7-methylquinoxalin-5-yl)-7-methyl-7,8-dihydrobenzofuro[5,4-d]thiazol-7-yl)methanol] yielded an IC50 of 1.1 nM. `COc1cnc2c(-c3nc4cc(F)c5c(c4s3)C[C@H](COC(=O)Nc3cnc(OCCO)nc3)O5)cc(C)cc2n1` [Example 173, (R)-(5-fluoro-2-(2-methoxy-7-methylquinoxalin-5-yl)-7,8-dihydrobenzofuro[5,4-d]thiazo 1-7-yl)methyl (2-(2-hydroxyethoxy)pyrimidin-5-yl)carbamate] was tested, and the IC50 was 1.3 nM. Compound `COc1cnc2c(-c3nc4cc(F)c5c(c4s3)C[C@@](C)(COC(=O)Nc3cnc(C)nc3)O5)cc(C)cc2n1` [Example 174, (S)-(5-fluoro-2-(2-methoxy-7-methylquinoxalin-5-yl)-7-methyl-7,8-dihydrobenzofuro[5,4-d]thiazol-7-yl)methyl (2-methylpyrimidin-5-yl)carbamate] has an IC50 of 30 nM. `COc1cnc2c(-c3nc4cc(F)c5c(c4s3)C[C@@](C)(COC(=O)Nc3cccnc3)O5)cc(C)cc2n1` [Example 175, (S)-(5-fluoro-2-(2-methoxy-7-methylquinoxalin-5-yl)-7-methyl-7,8-dihydrobenzofuro[5,4-d]thiazol-7-yl)methyl pyridin-3-ylcarbamate] was tested, and the IC50 was 19 nM. For `COc1cnc2c(-c3nc4cc(F)c5c(c4s3)C[C@@](C)(COC(=O)Nc3cccc(C#N)c3)O5)cc(C)cc2n1` [Example 176, (S)-(5-fluoro-2-(2-methoxy-7-methylquinoxalin-5-yl)-7-methyl-7,8-dihydrobenzofuro[5,4-d]thiazol-7-yl)methyl (3-cyanophenyl)carbamate], the IC50 was 6.1 nM. With `COc1cnc2c(-c3nc4cc(F)c5c(c4s3)C[C@H](COC(=O)Nc3cnc(OC)nc3)O5)cc(C)cc2n1` [Example 177, (R)-(5-fluoro-2-(2-methoxy-7-methylquinoxalin-5-yl)-7,8-dihydrobenzofuro[5,4-d]thiazol-7-yl)methyl (2-methoxypyrimidin-5-yl)carbamate] the IC50 was 2.8 nM. In the case of `COc1cnc2c(-c3nc4cc(F)c5c(c4s3)C[C@H](COC(=O)Nc3ccc4c(c3)C(=O)NC4)O5)cc(C)cc2n1` [Example 178, (R)-(5-fluoro-2-(2-methoxy-7-methylquinoxalin-5-yl)-7,8-dihydrobenzofuro[5,4-d]thiazo 1-7-yl)methyl (3-oxoisoindolin-5-yl)carbamate], the IC50 is reported as 2.3 nM. With `COc1cnc2c(-c3nc4cc(F)c5c(c4s3)C[C@H](COC(=O)Nc3cc(F)cc(C#N)c3)O5)cc(C)cc2n1` [Example 179, (R)-(5-fluoro-2-(2-methoxy-7-methylquinoxalin-5-yl)-7,8-dihydrobenzofuro[5,4-d]thiazo 1-7-yl)methyl (3-cyano-5-fluorophenyl)carbamate] the IC50 was 2.4 nM. `COc1cnc2c(-c3nc4cc(F)c5c(c4s3)C[C@H](COC(=O)Nc3cccc(C(N)=O)c3)O5)cc(C)cc2n1` [Example 180, (R)-(5-fluoro-2-(2-methoxy-7-methylquinoxalin-5-yl)-7,8-dihydrobenzofuro[5,4-d]thiazol-7-yl)methyl (3-carbamoylphenyl)carbamate] was tested, and the IC50 was 1.6 nM. `COc1cnc2c(-c3nc4cc(F)c5c(c4s3)C[C@](C)(CO)O5)cc(C)cc2n1` [Example 181, (R)-(5-fluoro-2-(2-methoxy-7-methylquinoxalin-5-yl)-7-methyl-7,8-dihydrobenzofuro[5,4-d]thiazol-7-yl)methanol] showed an IC50 of 52 nM. `COc1cnc2c(-c3nc4cc(F)c5c(c4s3)C[C@](C)(COC(=O)Nc3cnc(C)nc3)O5)cc(C)cc2n1` [Example 182, (R)-(5-fluoro-2-(2-methoxy-7-methylquinoxalin-5-yl)-7-methyl-7,8-dihydrobenzofuro[5,4-d]thiazol-7-yl)methyl (2-methylpyrimidin-5-yl)carbamate] gave an IC50 of 2.6 nM.
